In patent publication US8883789B2, “Piperazine derivatives and their use as positive allosteric modulators of mGluR5 receptors” (Boehringer Ingelheim International GmbH, priority 2011, dated 2014):
pEC50: −log10 of the molar value.

Each compound was assayed against T1, human recombinant mGluR5 (Homo sapiens, UniProt P41594) (assay: positive modulation of mGluR5, calcium based FLIPR assay). Conditions: HEK 293 cell line expressing human recombinant mGluR5; Ca2+ peak height after glutamate at approximately 5% basal stimulation; nonlinear regression.
T1 construct: expressed in transfected cells; hygromycin and geneticin selection
Method: The positive modulation of mGluR5 is measured in a HEK 293 cell line expressing human recombinant mGluR5 and is detected with calcium based FLIPR assay. The cells are cultured with DMEM supplemented with 10% FCS, 2 μg/mL tetracycline, 100 μg/mL hygromycin and 500 μg/mL geneticin. The cell culture media is exchanged for tetracycline-free cell culture media 3-7 days before the assay. One day before the assay the cell culture medium is exchanged to DMEM without glutamine and phenol red and supplemented with 10% FCS, 100 μg/mL hygromycin and 500 μg/mL geneticin. On the assay day, the medium of the subconfluent cultures is removed and the cells are detached by addition of 2.5 ml EDTA (0.02%) per 175 cm2 culture flask for 1 minute. The cells are resuspend in Ringer solution (140 mM NaCl, 5 mM KCl, 2.5 mM CaCl2, 1.5 mM MgCl2, 5 mM Glucose, 10 mM Hepes; adjusted to pH 7.4 with NaOH), pooled and Ringer solution added to adjust the volume to 50 mL. The cell suspension is centrifuged for […] at 1500 U/min (425 g). The supernatant is removed and the cells washed a second time with 50 ml fresh Ringer solution and centrifuged again as before. The supernatant is again removed and the pellet resuspended in Ringer solution to 1,000,000 cells/ml (1×10^6 cells/mL). The cells are plated onto BD BioCoat Poly-D-Lysine 384 well plates (20.000 cells/well; 20 μl/well). The lid covered plates are then incubated until use at 37° C./10% CO2. For dye loading, 20 μl of Calcium-4 assay kit solution (prepared according to the manufacturer's description in Ringer solution) are added to the cells and the plates are incubated for 80 min 37° C. and then 10 min at room temperature.
Controls, Compound Dilution and Assay Execution:
Each assay plate contained wells with “high” and “low” controls:
Low controls 1% DMSO/ringer solution+basal glutamate activation (defined as 100% CTL).
High controls 10 μM CDPPB+basal glutamate activation (defined as 200% CTL).
Test compounds are dissolved and diluted in DMSO to 100-fold the desired concentrations. In a second step, the compounds are diluted in Ringer solution such that the compounds are 4-fold more concentrated than the desired final assay concentration. The final DMSO concentration was 1%.
20 μl of each compound solution are then transferred to the assay plate and the Ca2+ kinetic is measured to determine any intrinsic compound activity. After 5 min incubation in the FLIPR device, the second stimulation with 20 μl of glutamate in Ringer solution (glutamate concentration adjusted to approximately 5% basal stimulation of the maximal possible glutamate effect) is added and the kinetic Ca2+ response of the wells was measured for the modulation effect.
The peak height of the Ca release related fluorescence signal (9-66) is used for the EC50.
The EC50 of the modulation is calculated over a nonlinear regression with GraphPad Prism (Table 1).

T1 sequence (P41594 21-1212): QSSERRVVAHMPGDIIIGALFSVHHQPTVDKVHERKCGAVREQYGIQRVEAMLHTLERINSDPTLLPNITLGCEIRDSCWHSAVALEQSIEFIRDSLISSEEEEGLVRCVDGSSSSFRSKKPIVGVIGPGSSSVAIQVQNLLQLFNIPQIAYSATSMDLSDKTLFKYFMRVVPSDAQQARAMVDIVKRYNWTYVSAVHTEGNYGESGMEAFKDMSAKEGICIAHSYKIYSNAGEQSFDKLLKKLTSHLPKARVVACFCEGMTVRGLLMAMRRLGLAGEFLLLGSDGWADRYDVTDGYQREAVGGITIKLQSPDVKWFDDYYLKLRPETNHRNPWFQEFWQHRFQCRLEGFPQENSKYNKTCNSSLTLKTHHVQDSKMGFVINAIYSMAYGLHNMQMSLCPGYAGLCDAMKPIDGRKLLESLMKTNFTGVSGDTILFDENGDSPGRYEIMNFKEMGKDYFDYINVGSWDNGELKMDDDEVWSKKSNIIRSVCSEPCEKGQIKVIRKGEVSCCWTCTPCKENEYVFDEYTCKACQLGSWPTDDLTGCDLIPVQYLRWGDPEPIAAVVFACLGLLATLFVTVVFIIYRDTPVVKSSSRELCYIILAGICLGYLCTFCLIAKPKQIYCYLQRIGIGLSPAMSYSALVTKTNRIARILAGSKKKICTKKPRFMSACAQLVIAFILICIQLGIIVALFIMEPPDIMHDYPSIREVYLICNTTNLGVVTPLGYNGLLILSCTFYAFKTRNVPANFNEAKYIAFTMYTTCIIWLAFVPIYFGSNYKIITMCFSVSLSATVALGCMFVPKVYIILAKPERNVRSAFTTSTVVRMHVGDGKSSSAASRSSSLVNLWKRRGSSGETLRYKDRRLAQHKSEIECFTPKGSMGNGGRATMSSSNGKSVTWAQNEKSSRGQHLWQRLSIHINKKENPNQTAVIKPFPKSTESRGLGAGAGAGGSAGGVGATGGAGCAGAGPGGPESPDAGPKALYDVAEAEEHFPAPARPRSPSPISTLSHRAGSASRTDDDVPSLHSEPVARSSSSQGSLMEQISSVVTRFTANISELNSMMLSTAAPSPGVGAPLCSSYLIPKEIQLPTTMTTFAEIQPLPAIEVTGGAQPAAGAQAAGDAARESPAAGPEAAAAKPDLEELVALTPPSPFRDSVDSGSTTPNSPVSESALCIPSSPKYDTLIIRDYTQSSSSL

| pEC50 | SMILES |
| --- | --- |
| 7.41 | Cc1oc2ccc(Br)cc2c1C(=O)N1CCN(C(=O)c2ncn(-c3cccc(F)c3)n2)C(C)(C)C1 [Example 1, [4-(5-Bromo-2-methyl-benzofuran-3-carbonyl)-2,2-dimethyl-piperazin-1-yl]-[1-(3-fluoro-phenyl)-1H-[1,2,4]triazol-3yl]-methanone] |
| 6.70 | CC1(C)CN(C(=O)c2csc(-c3ccccc3)n2)CCN1C(=O)c1ncn(-c2cccc(Cl)c2)n1 [Example 54] |
| 5.79 | Cc1cccc(-n2cnc(C(=O)N3CCN(C(=O)c4oc5ccc(F)cc5c4C)C(C)C3)n2)c1 (centres unmarked) [Example 236] |
| 6.92 | CCn1cc(-c2cccc(C(=O)N3CCN(C(=O)c4ncn(-c5cccc(Cl)c5)n4)C(C)(C)C3)n2)cn1 [Example 92] |
| 7.10 | CC1(C)CN(C(=O)c2ccc(Cl)c(Cl)c2)CCN1C(=O)c1ncn(-c2cccc(Cl)c2)n1 [Example 27] |
| 6.53 | CC1(C)CN(C(=O)c2cccc(-c3cnco3)c2)CCN1C(=O)c1ncn(-c2ccccc2)n1 [Example 127] |
| 7.19 | CC1(C)CN(C(=O)c2cc(Br)c(Br)o2)CCN1C(=O)c1ncn(-c2ccccc2)n1 [Example 105] |
| 7.72 | CC1(C)CN(C(=O)c2cccc(Cl)c2)CCN1C(=O)c1ncn(-c2cccc(Cl)c2)n1 [Example 173, [4-(3-Chloro-benzoyl)-2,2-dimethyl-piperazin-1-yl]-[1-(3-chloro-phenyl)-1H-[1,2,4]triazol-3-yl]-methanone] |
| 6.50 | COc1cccc(C(=O)N2CCN(C(=O)c3ncn(-c4ccc(F)c(C)c4)n3)C(C)(C)C2)n1 [Example 161] |
| 7.42 | Cc1noc(C)c1-c1cccc(C(=O)N2CCN(C(=O)c3ncn(-c4cccc(Cl)c4)n3)C(C)(C)C2)n1 [Example 90, [1-(3-Chloro-phenyl)-1H-[1,2,4]triazol-3-yl]-{4-[6-(3,5-dimethyl-isoxazol-4-yl)-pyridine-2-carbonyl]-2,2-dimethyl-piperazin-1-yl]-methanone] |
| 6.95 | Cn1nccc1-c1cccc(C(=O)N2CCN(C(=O)c3ncn(-c4cccc(Cl)c4)n3)C(C)(C)C2)n1 [Example 91] |
| 7.05 | Cc1oc2ccccc2c1C(=O)N1CCN(C(=O)c2ncn(-c3ccccc3)n2)C(C)(C)C1 [Example 106] |
| 6.81 | CCc1ccc(C(=O)N2CCN(C(=O)c3ncn(-c4cccc(Cl)c4)n3)C(C)(C)C2)cc1 [Example 81] |
| 7.00 | CC1(C)CN(C(=O)c2cccc(-c3cnco3)c2)CCN1C(=O)c1ncn(-c2cccc(Cl)c2)n1 [Example 28] |
| 7.21 | CC1(C)CN(C(=O)c2ccc3ccccc3c2)CCN1C(=O)c1ncn(-c2cccc(Cl)c2)n1 [Example 24] |
| 6.86 | Cc1cc2cc(C(=O)N3CCN(C(=O)c4ncn(-c5cccc(Cl)c5)n4)C(C)(C)C3)ccc2[nH]1 [Example 80] |
| 7.72 | Cc1cccc(-n2cnc(C(=O)N3CCN(C(=O)c4cccc(C5CC5)n4)CC3(C)C)n2)c1 [Example 181] |
| 6.66 | Cc1cc(C(=O)N2CCN(C(=O)c3ncn(-c4cccc(F)c4)n3)C(C)(C)C2)oc1C [Example 174, [4-(4,5-Dimethyl-furan-2-carbonyl)-2,2-dimethyl-piperazin-1-yl]-[1-(3-fluoro-phenyl)-1H-[1,2,4]triazol-3-yl]-methanone] |
| 6.74 | COc1ccc2c(C)c(C(=O)N3CCN(C(=O)c4ncn(-c5cccc(Cl)c5)n4)C(C)(C)C3)oc2c1 [Example 47] |
| 6.87 | CN(C)c1cccc(C(=O)N2CCN(C(=O)c3ncn(-c4cccc(Cl)c4)n3)C(C)(C)C2)c1 [Example 44] |
| 6.99 | CC1(C)CN(C(=O)c2cccc(N3CCCC3)n2)CCN1C(=O)c1ncn(-c2cccc(Cl)c2)n1 [Example 51] |
| 5.96 | COc1cccc(C(=O)N2CCN(C(=O)c3ncn(-c4cccc(Cl)c4)n3)CC2(C)C)n1 [Example 257, {4-[1-(3-Chloro-phenyl)-1H-[1,2,4]triazole-3-carbonyl]-2,2-dimethyl-piperazin-1-yl}-(6-methoxy-pyridin-2-yl)-methanone] |
| 7.30 | COc1cccc(C(=O)N2CCN(C(=O)c3ncn(-c4cccc(C)c4)n3)C(C)(C)C2)n1 [Example 7, [4-(6-Methoxy-pyridine-2-carbonyl)-2,2-dimethyl-piperazin-1-yl]-[1-m-tolyl-1H-[1,2,4]triazol-3yl]-methanone] |

Second part, the compound before the results:

| SMILES | pEC50 |
| --- | --- |
| CC1CN(C(=O)c2cc3c(Cl)cccc3s2)CCN1C(=O)c1ncn(-c2ccccc2)n1 (centres unmarked) [Example 293] | 6.44 |
| COc1cccc(C(=O)N2C[C@@H](C)N(C(=O)c3ncn(-c4cccc(C)c4)n3)[C@@H](C)C2)n1 [Example 302, (2R*,6S*)-4-[(6-methoxypyridin-2-yl)carbonyl]-2,6-dimethyl-1-{[1-(3-methylphenyl)-1H-1,2,4-triazol-3-yl]carbonyl}piperazine] | 6.78 |
| CC1(C)CN(C(=O)c2cccc(COc3ccccc3)c2)CCN1C(=O)c1ncn(-c2cccc(Cl)c2)n1 [Example 74] | 6.77 |
| CC1(C)CN(C(=O)c2cccc(C3CC3)n2)CCN1C(=O)c1nnn(-c2ccccc2)n1 [Example 180, [4-(6-Cyclopropyl-pyridine-2-carbonyl)-2,2-dimethyl-piperazin-1-yl]-(2-phenyl-2H-tetrazol-5-yl)-methanone] | 7.80 |
| COc1cccc(C(=O)N2CCN(C(=O)c3nnn(-c4cccc(C)c4)n3)CC2C)n1 (centres unmarked) [Example 243, (6-Methoxy-pyridin-2-yl)-[2-methyl-4-(2-m-tolyl-2H-tetrazole-5-carbonyl)-piperazin-1-yl]-methanone] | 6.44 |
| CC1CN(C(=O)c2ncn(-c3cccc(Cl)c3)n2)CCN1C(=O)c1cccc(-c2ccn(C)n2)c1 (centres unmarked) [Example 225] | 6.30 |
| Cc1c(C(=O)N2CCN(C(=O)c3ncn(-c4ccccc4)n3)CC2C)oc2ccc(F)cc12 (centres unmarked) [Example 241] | 6.01 |
| Cc1c(C(=O)N2CCN(C(=O)c3ncn(-c4cccc(Cl)c4)n3)C(C)C2)oc2c(F)cccc12 (centres unmarked) [Example 284] | 6.07 |
| CC1(C)CN(C(=O)c2cc3ccccc3c(OCC3CC3)n2)CCN1C(=O)c1ncn(-c2cccc(Cl)c2)n1 [Example 85] | 6.96 |
| COCc1c(C(=O)N2CCN(C(=O)c3ncn(-c4cccc(Cl)c4)n3)C(C)C2)oc2ccccc12 (centres unmarked) [Example 274] | 6.09 |
| CC1(C)CN(C(=O)c2cccc(Cl)c2)CCN1C(=O)c1nnn(-c2ccc(F)cc2)n1 [Example 193] | 6.76 |
| CC(C)c1cccc(C(=O)N2CCN(C(=O)c3nnn(-c4ccccc4)n3)C(C)(C)C2)c1 [Example 167] | 7.82 |
| COc1cccc(C(=O)N2CCN(C(=O)c3ncn(-c4cccc(F)c4)n3)CC2C)n1 (centres unmarked) [Example 246] | 6.64 |
| Cn1c(CC2CCCC2)nc2ccc(C(=O)N3CCN(C(=O)c4ncn(-c5ccccc5)n4)C(C)(C)C3)cc21 [Example 179, [4-(2-cyclopentylmethyl-3-methyl-3H-benzoimidazole-5-carbonyl)-2,2-dimethyl-piperazin-1-yl]-(1-phenyl-1H-[1,2,4]-triazol-3-yl)-methanone] | 6.82 |
| COc1ccc2oc(C)c(C(=O)N3CCN(C(=O)c4ncn(-c5ccccc5)n4)C(C)C3)c2c1 (centres unmarked) [Example 291] | 7.33 |
| COc1cccc(C(=O)N2CCN(C(=O)c3ncn(-c4cccc(Cl)c4)n3)C(C)C2)n1 (centres unmarked) [Example 265, {4-[1-(3-Chloro-phenyl)-1H-[1,2,4]-triazole-3-carbonyl]-3-methyl-piperazin-1-yl}-(6-methoxy-pyridin-2-yl)-methanone] | 6.71 |
| COc1cc(OC)cc(C(=O)N2CCN(C(=O)c3ncn(-c4cccc(Cl)c4)n3)C(C)C2)c1 (centres unmarked) [Example 280] | 6.32 |
| COc1cccc(C(=O)N2CCN(C(=O)c3ncn(-c4cccc(F)c4)n3)C(C)C2)n1 (centres unmarked) [Example 297] | 6.39 |
| COc1cccc(C(=O)N2CCN(C(=O)c3ncn(-c4cccc(Cl)c4)n3)[C@H](C)C2)n1 [Example 301, (R)-{4-[1-(3-Chloro-phenyl)-1H-[1,2,4]triazole-3-carbonyl]-3-methyl-piperazin-1-yl}-(6-methoxy-pyridin-2-yl)-methanone] | 6.79 |
| Cc1ccc2oc(C(=O)N3CCN(C(=O)c4ncn(-c5cccc(Cl)c5)n4)CC3C)c(C)c2c1 (centres unmarked) [Example 227] | 6.02 |
| COc1cccc(C(=O)N2CCN(C(=O)c3ncn(-c4cccc(Br)c4)n3)CC2C)n1 (centres unmarked) [Example 245] | 6.45 |
